Experimental findings from patent US20060276464A1, “Diarylsulfone sulfonamides and use thereof” (Wyeth, priority 2005, published 2006) are described below.

Data set [1] concerns the target T1, SFRP-1 (Homo sapiens, UniProt Q8N474).
T1 sequence (Q8N474 32-314): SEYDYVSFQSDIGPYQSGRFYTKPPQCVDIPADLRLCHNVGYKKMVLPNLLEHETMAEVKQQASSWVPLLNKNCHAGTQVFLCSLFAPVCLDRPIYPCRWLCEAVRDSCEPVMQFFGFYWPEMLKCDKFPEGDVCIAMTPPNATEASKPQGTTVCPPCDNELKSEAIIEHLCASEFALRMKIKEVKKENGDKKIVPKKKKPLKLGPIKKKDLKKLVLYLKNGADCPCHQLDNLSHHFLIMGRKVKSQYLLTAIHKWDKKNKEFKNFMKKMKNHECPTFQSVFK
As to the kind of experiment: Cell-based assay for in vitro measurement of SFRP-1/SARP2 antagonist activity (U2OS cells co-transfected with 16x TCF-tk-Luciferase reporter, Wnt and hSFRP-1).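 For all read-outs here: U2OS cells co-transfected with a TCF-tk luciferase reporter, a Wnt vector, hSFRP-1 or empty vector and CMV-βgal, luciferase luminescence read in cell lysates alongside βgal activity.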 The conditions noted are these: for fold induction at 10 µM: U2OS, read-out: Fold Induction with SFRP-1, U2OS cells, single dose 10 μM, luciferase reporter, fold induction over SFRP-1 control. (In general: Reporter assays use an easily measured gene product as a stand-in for the process of interest.)

Data set [2] has as its target T1, SFRP-1. As to the kind of experiment: Fluorescence polarization binding assay (competitive displacement of a probe compound from SFRP-1).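 Note: test compound competes with a fluorescent probe held by SFRP-1, seen as a drop in probe anisotropy after incubation in darkness, with anisotropy as function of rising compound dose.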 The conditions noted are these: fluorescence anisotropy, 45 nM SFRP-1, 20 nM probe.

As a reminder, the melting point is the temperature, or range, at which the solid turns liquid. What is called IC50 is the point on the concentration scale where inhibition reaches its midpoint. A high value points to lower potency. With `CC(C)c1ccc(S(=O)(=O)c2ccccc2)cc1S(=O)(=O)NC1CCN(C(=O)c2ccc(C(F)(F)F)cc2)CC1` [Example 807, 2-Isopropyl-5-(phenylsulfonyl)-N-{1-[4-(trifluoromethyl)benzoyl]piperidin-4-yl}benzenesulfonamide], the melting point lay in the range of 140 to 142 °C. Further, the fold induction at 10 µM on SFRP-1 [1] came to 3. At SFRP-1 [2], this compound had an IC50 of 900 nM.

As a reminder, the EC50 is the concentration at which the effect is half-maximal. Read a low EC50 as a more potent agent. Regarding `CC(C)c1ccc(S(=O)(=O)c2ccccc2)cc1S(=O)(=O)NC1CCN(C(=O)c2cccc3ccccc23)CC1` [Example 808, 2-Isopropyl-N-[1-(1-naphthoyl)piperidin-4-yl]-5-(phenylsulfonyl)benzenesulfonamide], the melting point lay within 163 to 165 °C. Moreover, at SFRP-1 [1], the EC50 was 945 nM and the fold induction at 10 µM was 3.7. For the same compound, at SFRP-1 [2], the IC50 turned out to be 500 nM.

`CC(C)c1ccc(S(=O)(=O)c2ccccc2)cc1S(=O)(=O)NC1CCN(C(=O)c2ccc3ccccc3c2)CC1` [Example 809, 2-Isopropyl-N-[1-(2-naphthoyl)piperidin-4-yl]-5-(phenylsulfonyl)benzenesulfonamide] returned a melting point of 130 to 132 °C. Besides, at SFRP-1 [1], the fold induction at 10 µM stood at 2.8. In addition, the IC50 on SFRP-1 [2] came to 1100 nM.

For the compound `CC(C)c1ccc(S(=O)(=O)c2ccccc2)cc1S(=O)(=O)NC1CCN(C(=O)c2cccc(C#N)c2)CC1` [Example 810, N-[1-(3-Cyanobenzoyl)piperidin-4-yl]-2-isopropyl-5-(phenylsulfonyl)benzenesulfonamide], the melting point was in the range of 120 to 122 °C. Moreover, on SFRP-1 [1], a half-maximal effect (EC50) was put at 818 nM and the fold induction at 10 µM was found to be 3.1. At SFRP-1 [2], the IC50 came out at 290 nM.

Take `CC(C)c1ccc(S(=O)(=O)c2ccccc2)cc1S(=O)(=O)NC1CCN(C(=O)c2ccc(C#N)cc2)CC1` [Example 811, N-[1-(4-Cyanobenzoyl)piperidin-4-yl]-2-isopropyl-5-(phenylsulfonyl)benzenesulfonamide]: the melting point lay in the range of 136 to 138 °C. In addition, the fold induction at 10 µM on SFRP-1 [1] is 2.6. At SFRP-1 [2], this compound registered an IC50 of 300 nM.

`CC(C)c1ccc(S(=O)(=O)c2ccccc2)cc1S(=O)(=O)NC1CCN(C(=O)c2ccc(C(C)(C)C)cc2)CC1` [Example 812, N-[1-(4-tert-Butylbenzoyl)piperidin-4-yl]-2-isopropyl-5-(phenylsulfonyl)benzenesulfonamide]: the melting point is 150 to 152 °C. The fold induction at 10 µM on SFRP-1 [1] came to 3.9. For the same compound, the IC50 at SFRP-1 [2] came out at 600 nM.

`CCOc1ccc2ccccc2c1C(=O)N1CCC(NS(=O)(=O)c2cc(S(=O)(=O)c3ccccc3)ccc2C(C)C)CC1` [Example 813, N-[1-(2-Ethoxy-1-naphthoyl)piperidin-4-yl]-2-isopropyl-5-(phenylsulfonyl)benzenesulfonamide] displayed a melting point of 164 to 166 °C. On SFRP-1 [1], a half-maximal response (EC50) required 674 nM and the fold induction at 10 µM is 3.9. This compound also returned an IC50 at SFRP-1 [2] of 400 nM.

As for `CCCc1ccc(S(=O)(=O)c2ccccc2)cc1S(=O)(=O)NCCc1ccncc1` [Example 859, 5-(Phenylsulfonyl)-2-propyl-N-(2-pyridin-4-ylethyl)benzenesulfonamide], the melting point is 155 to 157 °C. Further, on SFRP-1 [1], the EC50 came to 1540 nM and the fold induction at 10 µM is 3.6. This compound came in with an IC50 at SFRP-1 [2] of 600 nM.

Take `CCCc1ccc(S(=O)(=O)c2ccc(F)cc2)cc1S(=O)(=O)NCCc1cccnc1` [Example 874, 5-[(4-Fluorophenyl)sulfonyl]-2-propyl-N-(2-pyridin-3-ylethyl)benzenesulfonamide]: the melting point lay in the range of 111 to 113 °C. On SFRP-1 [1], a half-maximal response (EC50) required 2000 nM and the fold induction at 10 µM is 3.1. This compound also had an IC50 at SFRP-1 [2] of 1950 nM.

`CCCc1ccc(S(=O)(=O)c2ccc(F)cc2)cc1S(=O)(=O)NCCc1ccncc1` [Example 875, 5-[(4-Fluorophenyl)sulfonyl]-2-propyl-N-(2-pyridin-4-ylethyl)benzenesulfonamide] gave a melting point of 160 to 162 °C. Moreover, at SFRP-1 [1], a half-maximal response (EC50) required 6650 nM and the fold induction at 10 µM amounted to 1.6. The IC50 at SFRP-1 [2] stood at 600 nM.
